# Experiments:
# [1] = target: ABL1(E255K)-phosphorylated (Homo sapiens (Human), UniProt P00519, E255K); assay: KINOMEscan scanMAX; type: binding; conditions: 2000 nM; read-out: Percent Control
# [2] = target: ABL1(Y253F)-phosphorylated (Homo sapiens (Human), UniProt P00519, Y253F); assay: KINOMEscan scanMAX; type: binding; conditions: 2000 nM; read-out: Percent Control
# BRAF(V600E) = BRAF(V600E) (Homo sapiens (Human), UniProt P15056, V600E); assay: KINOMEscan scanMAX; type: binding; conditions: 2000 nM; read-out: Percent Control
# CAMK1D = CAMK1D (Homo sapiens (Human), UniProt Q8IU85); assay: KINOMEscan scanMAX; type: binding; conditions: 2000 nM; read-out: Percent Control
# CAMKK1 = CAMKK1 (Homo sapiens (Human), UniProt Q8N5S9); assay: KINOMEscan scanMAX; type: binding; conditions: 2000 nM; read-out: Percent Control
# CAMKK2 = CAMKK2 (Homo sapiens (Human), UniProt Q96RR4); assay: KINOMEscan scanMAX; type: binding; conditions: 2000 nM; read-out: Percent Control
# CASK = CASK (Homo sapiens (Human), UniProt O14936); assay: KINOMEscan scanMAX; type: binding; conditions: 2000 nM; read-out: Percent Control
# CDK4-cyclinD3 = CDK4-cyclinD3 (Homo sapiens (Human), UniProt P11802); assay: KINOMEscan scanMAX; type: binding; conditions: 2000 nM; read-out: Percent Control
# CDKL2 = CDKL2 (Homo sapiens (Human), UniProt Q92772); assay: KINOMEscan scanMAX; type: binding; conditions: 2000 nM; read-out: Percent Control
# DRAK1 (STK17A) = DRAK1 (STK17A) (Homo sapiens (Human), UniProt Q9UEE5); assay: KINOMEscan scanMAX; type: binding; conditions: 2000 nM; read-out: Percent Control
# EGFR(S752-1759del) = EGFR(S752-1759del) (Homo sapiens (Human), UniProt P00533, DEL752-759); assay: KINOMEscan scanMAX; type: binding; conditions: 2000 nM; read-out: Percent Control
# EPHA4 = EPHA4 (Homo sapiens (Human), UniProt P54764); assay: KINOMEscan scanMAX; type: binding; conditions: 2000 nM; read-out: Percent Control
# EPHA5 = EPHA5 (Homo sapiens (Human), UniProt P54756); assay: KINOMEscan scanMAX; type: binding; conditions: 2000 nM; read-out: Percent Control
# EPHB4 = EPHB4 (Homo sapiens (Human), UniProt P54760); assay: KINOMEscan scanMAX; type: binding; conditions: 2000 nM; read-out: Percent Control
# FLT1 = FLT1 (Homo sapiens (Human), UniProt P17948); assay: KINOMEscan scanMAX; type: binding; conditions: 2000 nM; read-out: Percent Control
# HCK = HCK (Homo sapiens (Human), UniProt P08631); assay: KINOMEscan scanMAX; type: binding; conditions: 2000 nM; read-out: Percent Control
# IRAK3 = IRAK3 (Homo sapiens (Human), UniProt Q9Y616); assay: KINOMEscan scanMAX; type: binding; conditions: 2000 nM; read-out: Percent Control
# ITK = ITK (Homo sapiens (Human), UniProt Q08881); assay: KINOMEscan scanMAX; type: binding; conditions: 2000 nM; read-out: Percent Control
# JNK1 (MAPK8) = JNK1 (MAPK8) (Homo sapiens (Human), UniProt P45983); assay: KINOMEscan scanMAX; type: binding; conditions: 2000 nM; read-out: Percent Control
# KIT(A829P) = KIT(A829P) (Homo sapiens (Human), UniProt P10721, A829P); assay: KINOMEscan scanMAX; type: binding; conditions: 2000 nM; read-out: Percent Control
# MAK = MAK (Homo sapiens (Human), UniProt P20794); assay: KINOMEscan scanMAX; type: binding; conditions: 2000 nM; read-out: Percent Control
# MARK3 = MARK3 (Homo sapiens (Human), UniProt P27448); assay: KINOMEscan scanMAX; type: binding; conditions: 2000 nM; read-out: Percent Control
# MELK = MELK (Homo sapiens (Human), UniProt Q14680); assay: KINOMEscan scanMAX; type: binding; conditions: 2000 nM; read-out: Percent Control
# MET(Y1235D) = MET(Y1235D) (Homo sapiens (Human), UniProt P08581, Y1235D); assay: KINOMEscan scanMAX; type: binding; conditions: 2000 nM; read-out: Percent Control
# MYLK4 = MYLK4 (Homo sapiens (Human), UniProt Q86YV6); assay: KINOMEscan scanMAX; type: binding; conditions: 2000 nM; read-out: Percent Control
# NLK = NLK (Homo sapiens (Human), UniProt Q9UBE8); assay: KINOMEscan scanMAX; type: binding; conditions: 2000 nM; read-out: Percent Control
# [3] = target: PFCDPK1(P.falciparum) (CDPK1) (Plasmodium falciparum (isolate 3D7), UniProt P62344); assay: KINOMEscan scanMAX; type: binding; conditions: 2000 nM; read-out: Percent Control
# PIK3C2G = PIK3C2G (Homo sapiens (Human), UniProt O75747); assay: KINOMEscan scanMAX; type: binding; conditions: 2000 nM; read-out: Percent Control
# PIK3CG = PIK3CG (Homo sapiens (Human), UniProt P48736); assay: KINOMEscan scanMAX; type: binding; conditions: 2000 nM; read-out: Percent Control
# PIP5K1A = PIP5K1A (Homo sapiens (Human), UniProt Q99755); assay: KINOMEscan scanMAX; type: binding; conditions: 2000 nM; read-out: Percent Control
# PLK3 = PLK3 (Homo sapiens (Human), UniProt Q9H4B4); assay: KINOMEscan scanMAX; type: binding; conditions: 2000 nM; read-out: Percent Control
# PYK2 (PTK2B) = PYK2 (PTK2B) (Homo sapiens (Human), UniProt Q14289); assay: KINOMEscan scanMAX; type: binding; conditions: 2000 nM; read-out: Percent Control
# SGK2 = SGK2 (Homo sapiens (Human), UniProt Q9HBY8); assay: KINOMEscan scanMAX; type: binding; conditions: 2000 nM; read-out: Percent Control
# TXK = TXK (Homo sapiens (Human), UniProt P42681); assay: KINOMEscan scanMAX; type: binding; conditions: 2000 nM; read-out: Percent Control
# WNK2 = WNK2 (Homo sapiens (Human), UniProt Q9Y3S1); assay: KINOMEscan scanMAX; type: binding; conditions: 2000 nM; read-out: Percent Control
# YANK2 (STK32B) = YANK2 (STK32B) (Homo sapiens (Human), UniProt Q9NY57); assay: KINOMEscan scanMAX; type: binding; conditions: 2000 nM; read-out: Percent Control
# [4] = Mouse pharmacokinetics, oral, serum; type: in vivo, mice
# Procedure: To measure pharmacokinetics (PK), Senexin C dissolved in 5% Dextrose was administered orally (p.o.) to female FVB mice at 30 mg/kg. Blood samples were collected at different time points (5 mice per time point) and Senexin C concentration in the serum was measured by LC/MS/MS.
# HASPIN = HASPIN (Homo sapiens (Human), UniProt Q8TF76); assay: DiscoverX Kd assay
# Sequence of CAMK1D (Q8IU85 whole entry): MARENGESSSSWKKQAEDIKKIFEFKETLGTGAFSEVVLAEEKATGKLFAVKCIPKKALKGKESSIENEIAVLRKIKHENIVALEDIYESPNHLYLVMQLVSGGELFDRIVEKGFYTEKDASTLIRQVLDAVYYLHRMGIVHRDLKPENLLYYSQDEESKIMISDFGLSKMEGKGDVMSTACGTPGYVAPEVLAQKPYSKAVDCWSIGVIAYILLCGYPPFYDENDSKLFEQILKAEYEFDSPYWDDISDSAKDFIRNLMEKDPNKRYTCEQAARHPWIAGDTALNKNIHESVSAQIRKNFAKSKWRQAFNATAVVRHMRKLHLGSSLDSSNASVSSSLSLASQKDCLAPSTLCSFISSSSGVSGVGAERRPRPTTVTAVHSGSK
# Sequence of DRAK1 (STK17A) (Q9UEE5 whole entry): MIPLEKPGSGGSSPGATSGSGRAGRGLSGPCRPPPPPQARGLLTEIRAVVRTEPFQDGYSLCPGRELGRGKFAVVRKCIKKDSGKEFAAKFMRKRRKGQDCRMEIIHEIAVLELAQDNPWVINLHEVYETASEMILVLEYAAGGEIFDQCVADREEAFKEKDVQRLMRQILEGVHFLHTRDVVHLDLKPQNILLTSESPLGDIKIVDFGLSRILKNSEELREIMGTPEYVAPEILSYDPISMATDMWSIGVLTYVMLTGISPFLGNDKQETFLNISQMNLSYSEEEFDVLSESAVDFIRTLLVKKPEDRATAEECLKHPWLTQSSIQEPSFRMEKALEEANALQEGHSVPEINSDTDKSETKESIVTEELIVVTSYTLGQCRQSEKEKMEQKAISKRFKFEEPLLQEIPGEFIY
# Sequence of EGFR(S752-1759del) (P00533 other isoform, or with tags, fused parts or gaps del 1-668/del 752-759/del 1012-1210 limits assumed): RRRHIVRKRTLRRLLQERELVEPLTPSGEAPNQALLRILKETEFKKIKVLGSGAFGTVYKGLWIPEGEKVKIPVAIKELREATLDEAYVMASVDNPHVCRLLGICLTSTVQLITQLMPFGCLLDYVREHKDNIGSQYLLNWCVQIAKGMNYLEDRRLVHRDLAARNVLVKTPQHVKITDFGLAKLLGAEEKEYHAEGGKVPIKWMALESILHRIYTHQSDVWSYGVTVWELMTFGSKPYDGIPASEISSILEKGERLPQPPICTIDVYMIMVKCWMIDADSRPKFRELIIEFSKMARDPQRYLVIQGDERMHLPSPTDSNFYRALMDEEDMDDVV
# Sequence of YANK2 (STK32B) (Q9NY57 whole entry): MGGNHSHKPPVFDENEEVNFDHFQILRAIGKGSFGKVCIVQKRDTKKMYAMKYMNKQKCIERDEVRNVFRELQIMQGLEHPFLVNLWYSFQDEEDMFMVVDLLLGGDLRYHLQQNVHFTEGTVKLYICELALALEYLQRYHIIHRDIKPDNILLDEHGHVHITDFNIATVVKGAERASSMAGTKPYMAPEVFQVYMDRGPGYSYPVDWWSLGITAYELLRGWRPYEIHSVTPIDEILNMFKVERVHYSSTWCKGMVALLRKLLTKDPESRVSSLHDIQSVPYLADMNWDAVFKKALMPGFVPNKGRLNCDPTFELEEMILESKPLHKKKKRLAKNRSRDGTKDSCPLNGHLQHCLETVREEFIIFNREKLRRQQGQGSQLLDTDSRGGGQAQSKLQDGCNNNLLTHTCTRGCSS
# Sequence of MET(Y1235D) (P08581 25-1390 Y1235D): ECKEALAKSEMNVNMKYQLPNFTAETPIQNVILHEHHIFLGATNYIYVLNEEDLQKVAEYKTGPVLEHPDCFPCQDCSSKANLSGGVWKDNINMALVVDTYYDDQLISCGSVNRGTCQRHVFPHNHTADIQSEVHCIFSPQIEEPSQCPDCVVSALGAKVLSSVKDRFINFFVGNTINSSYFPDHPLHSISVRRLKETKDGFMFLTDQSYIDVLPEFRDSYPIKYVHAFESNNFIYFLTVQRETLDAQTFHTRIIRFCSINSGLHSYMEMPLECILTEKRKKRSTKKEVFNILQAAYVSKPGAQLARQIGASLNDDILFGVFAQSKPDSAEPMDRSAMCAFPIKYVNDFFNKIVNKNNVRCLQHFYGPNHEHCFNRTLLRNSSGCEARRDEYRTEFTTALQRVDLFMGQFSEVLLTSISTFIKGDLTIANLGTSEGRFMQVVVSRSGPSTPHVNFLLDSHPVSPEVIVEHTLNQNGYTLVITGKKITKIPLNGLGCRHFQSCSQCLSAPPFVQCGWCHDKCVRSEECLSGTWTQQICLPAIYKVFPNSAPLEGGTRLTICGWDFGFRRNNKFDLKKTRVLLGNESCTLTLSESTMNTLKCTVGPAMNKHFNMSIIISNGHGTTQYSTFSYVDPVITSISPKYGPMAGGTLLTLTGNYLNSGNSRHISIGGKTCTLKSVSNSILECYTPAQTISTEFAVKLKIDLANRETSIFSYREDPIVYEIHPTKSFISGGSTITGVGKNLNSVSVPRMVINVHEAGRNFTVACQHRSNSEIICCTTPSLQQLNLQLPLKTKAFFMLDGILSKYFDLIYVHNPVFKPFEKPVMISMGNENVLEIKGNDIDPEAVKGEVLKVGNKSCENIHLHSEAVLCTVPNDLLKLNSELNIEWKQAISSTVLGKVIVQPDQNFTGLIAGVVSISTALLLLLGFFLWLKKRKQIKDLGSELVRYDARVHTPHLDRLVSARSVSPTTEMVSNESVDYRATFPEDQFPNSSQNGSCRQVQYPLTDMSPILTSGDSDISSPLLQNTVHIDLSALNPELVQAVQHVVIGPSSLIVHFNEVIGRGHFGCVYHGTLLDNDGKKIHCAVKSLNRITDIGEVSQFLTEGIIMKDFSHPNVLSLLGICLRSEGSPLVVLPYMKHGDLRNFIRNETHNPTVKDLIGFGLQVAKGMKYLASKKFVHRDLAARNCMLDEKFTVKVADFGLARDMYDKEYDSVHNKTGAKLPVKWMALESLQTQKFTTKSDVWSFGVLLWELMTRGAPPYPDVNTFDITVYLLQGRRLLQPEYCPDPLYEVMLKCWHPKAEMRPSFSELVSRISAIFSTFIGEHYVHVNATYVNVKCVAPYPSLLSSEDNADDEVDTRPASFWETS
# Sequence of CAMKK1 (Q8N5S9 whole entry): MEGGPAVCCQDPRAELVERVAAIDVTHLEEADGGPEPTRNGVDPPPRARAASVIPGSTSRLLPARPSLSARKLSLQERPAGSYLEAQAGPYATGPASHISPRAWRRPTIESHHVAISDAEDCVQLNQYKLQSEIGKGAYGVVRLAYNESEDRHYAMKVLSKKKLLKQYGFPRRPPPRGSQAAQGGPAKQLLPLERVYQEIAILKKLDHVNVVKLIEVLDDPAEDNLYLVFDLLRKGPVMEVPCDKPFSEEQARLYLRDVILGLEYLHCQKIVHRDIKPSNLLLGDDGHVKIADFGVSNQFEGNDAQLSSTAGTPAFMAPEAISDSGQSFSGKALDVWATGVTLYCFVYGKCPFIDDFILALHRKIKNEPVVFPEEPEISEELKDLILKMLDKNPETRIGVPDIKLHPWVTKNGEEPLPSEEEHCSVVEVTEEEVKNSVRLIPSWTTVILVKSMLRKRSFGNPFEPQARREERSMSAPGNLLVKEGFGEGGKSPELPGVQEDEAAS
# Sequence of MARK3 (P27448 whole entry): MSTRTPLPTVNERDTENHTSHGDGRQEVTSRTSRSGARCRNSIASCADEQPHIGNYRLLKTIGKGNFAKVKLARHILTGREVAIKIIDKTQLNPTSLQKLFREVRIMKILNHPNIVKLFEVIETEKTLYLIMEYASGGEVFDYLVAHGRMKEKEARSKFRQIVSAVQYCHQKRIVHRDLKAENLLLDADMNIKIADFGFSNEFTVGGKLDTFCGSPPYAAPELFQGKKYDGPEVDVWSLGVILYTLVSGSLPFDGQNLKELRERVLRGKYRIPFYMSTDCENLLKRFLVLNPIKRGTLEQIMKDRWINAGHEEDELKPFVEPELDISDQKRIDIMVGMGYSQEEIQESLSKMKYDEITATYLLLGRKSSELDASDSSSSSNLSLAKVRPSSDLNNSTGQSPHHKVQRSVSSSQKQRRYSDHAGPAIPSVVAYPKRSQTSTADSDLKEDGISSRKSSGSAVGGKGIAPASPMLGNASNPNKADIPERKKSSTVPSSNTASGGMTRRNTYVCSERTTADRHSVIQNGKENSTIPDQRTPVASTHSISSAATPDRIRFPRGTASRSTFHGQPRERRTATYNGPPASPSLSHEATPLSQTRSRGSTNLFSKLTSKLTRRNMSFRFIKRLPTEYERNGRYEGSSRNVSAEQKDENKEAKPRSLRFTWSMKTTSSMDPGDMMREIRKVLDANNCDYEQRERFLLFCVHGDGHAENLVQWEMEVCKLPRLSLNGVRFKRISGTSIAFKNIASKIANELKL
# Sequence of TXK (P42681 whole entry): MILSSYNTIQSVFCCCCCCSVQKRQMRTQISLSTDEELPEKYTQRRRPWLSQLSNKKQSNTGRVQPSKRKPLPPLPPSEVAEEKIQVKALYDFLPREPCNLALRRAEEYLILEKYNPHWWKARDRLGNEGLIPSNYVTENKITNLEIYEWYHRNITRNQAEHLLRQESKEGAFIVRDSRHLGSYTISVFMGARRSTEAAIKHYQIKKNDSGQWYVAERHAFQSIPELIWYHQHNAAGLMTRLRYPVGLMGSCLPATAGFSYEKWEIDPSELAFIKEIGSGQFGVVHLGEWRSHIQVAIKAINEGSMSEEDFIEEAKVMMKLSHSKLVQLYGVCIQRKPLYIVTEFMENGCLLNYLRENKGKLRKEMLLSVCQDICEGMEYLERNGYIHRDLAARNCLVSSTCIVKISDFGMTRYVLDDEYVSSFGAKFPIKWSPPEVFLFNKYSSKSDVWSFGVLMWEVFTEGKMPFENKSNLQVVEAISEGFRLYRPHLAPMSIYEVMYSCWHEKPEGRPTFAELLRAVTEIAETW
smiles,measurement,setting,value
"CN1CCN(C(=O)c2ccc3cc(CCNc4ccnc5ccc(C#N)cc45)ccc3c2)CC1 [compound 6148, 4-((2-(6-(4-methylpiperazine-1-carbonyl)naphthalen-2-yl)ethyl)amino)quinoline-6-carbonitrile]",remaining binding at 2 µM,[1],93%
same,remaining binding at 2 µM,[2],74%
same,remaining binding at 2 µM,BRAF(V600E),89%
same,remaining binding at 2 µM,CAMK1D,80%
same,remaining binding at 2 µM,CAMKK1,100%
same,remaining binding at 2 µM,CAMKK2,82%
same,remaining binding at 2 µM,CASK,84%
same,remaining binding at 2 µM,CDK4-cyclinD3,80%
same,remaining binding at 2 µM,CDKL2,75%
same,remaining binding at 2 µM,DRAK1 (STK17A),100%
same,remaining binding at 2 µM,EGFR(S752-1759del),99%
same,remaining binding at 2 µM,EPHA4,93%
same,remaining binding at 2 µM,EPHA5,97%
same,remaining binding at 2 µM,EPHB4,89%
same,remaining binding at 2 µM,FLT1,99%
same,remaining binding at 2 µM,HCK,96%
same,remaining binding at 2 µM,IRAK3,94%
same,remaining binding at 2 µM,ITK,93%
same,remaining binding at 2 µM,JNK1 (MAPK8),54%
same,remaining binding at 2 µM,KIT(A829P),82%
same,remaining binding at 2 µM,MAK,100%
same,remaining binding at 2 µM,MARK3,94%
same,remaining binding at 2 µM,MELK,97%
same,remaining binding at 2 µM,MET(Y1235D),78%
same,remaining binding at 2 µM,MYLK4,98%
same,remaining binding at 2 µM,NLK,90%
same,remaining binding at 2 µM,[3],83%
same,remaining binding at 2 µM,PIK3C2G,57%
same,remaining binding at 2 µM,PIK3CG,76%
same,remaining binding at 2 µM,PIP5K1A,84%
same,remaining binding at 2 µM,PLK3,80%
same,remaining binding at 2 µM,PYK2 (PTK2B),92%
same,remaining binding at 2 µM,SGK2,61%
same,remaining binding at 2 µM,TXK,94%
same,remaining binding at 2 µM,WNK2,59%
same,remaining binding at 2 µM,YANK2 (STK32B),89%
same,"Increase of half-time, oral vs i.p.","[4]; female, FVB, mouse, in vivo",4-5 times
same,half-time,"[4]; p.o. 30 mg/kg, female FVB mice",3.8 h
same,Kd,HASPIN,1000 nM
